# In ChEMBL document CHEMBL5543059, “Discovery of anti-inflammatory natural flavonoids: Diverse scaffolds and promising leads for drug discovery” (Eur J Med Chem, 2023):
# System: RAW264.7
# Assay: Anti-neuroinflammatory activity in mouse RAW264.7 cells assessed as inhibition of LPS-induced NO production pre-incubated for 1 hr followed by LPS stimulation and measured after 24 hrs by Griess reagent based assay
# Assay type: functional, cell-based
# Details: not given
row,IC50 [µM],SMILES
1,0.89,COc1c(-c2ccc3c(c2)OCO3)c(=O)oc2cc3oc(C(C)(C)O)cc3c(OC)c12
2,0.89,C=C(C)c1oc2c(OC)c3oc(=O)c(-c4ccc(OC)cc4)c(O)c3c(OC)c2c1OC
3,0.89,C=C(C)c1cc2c(OC)c3c(O)c(-c4ccc(OC)cc4)c(=O)oc3c(OC)c2o1
4,0.89,C=C(C)c1cc2c(OC)c3c(O)c(-c4ccc5c(c4)OCO5)c(=O)oc3c(OC)c2o1
5,0.89,COc1ccc(-c2c(OC)c3c(OC)c4cc(C(C)(C)O)oc4cc3oc2=O)cc1
6,0.89,COc1ccc(-c2c(O)c3c(OC)c4c(OC)c(C(C)C)oc4c(OC)c3oc2=O)cc1OC

# System: Neutrophil
# Assay: Inhibition of fMLF/CB-induced human Neutrophil activation assessed as reduction in superoxide anion
# Assay type: functional, cell-based
# Details: not given
row,SMILES,IC50 [µM]
1,CC1(C)CCC[C@@]2(C)Oc3c(ccc4oc(-c5ccc(O)c(O)c5)cc(=O)c34)C[C@@]12C,2.2
2,Cc1cc2oc(-c3ccc(O)c(O)c3)cc(=O)c2c2c1C[C@@]1(C)C(C)(C)CCC[C@@]1(C)O2,5.8
3,O=C1C[C@@H](c2ccc(O)cc2)Oc2cc(O)cc(O)c21 [NARINGENIN],3.3
4,O=S(=O)(F)Cc1ccccc1 [PHENYLMETHYLSULFONYLFLUORIDE],95

# System: not listed separately
# Assay: Anti-inflammatory activity in carrageenan-induced human PBMC cells assessed as inhibition of IL-beta leakage at 10 uM measured for 24 hrs relative to control
# Assay type: functional
# Design: scale not given: the % may be the effect or the level left
# Details: not given
row,SMILES,Activity [%]
1,COc1ccc(-c2cc(=O)c3c(O)c(OC)c(OC)cc3o2)cc1OC,16.8
2,COc1ccc(-c2cc(=O)c3c(O)c(OC)c(OC)c(O)c3o2)cc1OC,34.4
3,COc1ccc(-c2cc(=O)c3c(O)c(OC)c(OC)c(OC)c3o2)cc1 [GARDENIN B],33.8

# System: Mus musculus
# Assay: Antiinflammatory activity against TPA-induced CD-1 mouse ear edema model assessed as reduction in ear edema at 1 uM relative to control
# Assay type: functional
# Design: scale not given: the % may be the effect or the level left
# Details: not given
row,SMILES,Activity [%]
1,O=C1c2c(O)cc(O)cc2O[C@H](c2ccc(O)c(O)c2)[C@H]1O [(+)-TAXIFOLIN],12
2,O=C1c2c(O)cc(O)cc2O[C@H](c2ccccc2)[C@H]1O [PINOBAKSIN],12.28

# System: RAW264.7
# Assay: Anti-inflammatory activity in LPS-stimulated mouse RAW264.7 cells assessed as inhibition of NO production incubated for 24 hrs by Griess reagent based assay
# Assay type: functional, cell-based
# Details: RAW264.7, 24 h
row,IC50 [µM],SMILES
1,5.64,COc1cc(O)c2c(=O)cc(-c3ccc(O)cc3)oc2c1 [GENKWANIN]

# System: RAW264.7
# Assay: Antiinflammatory activity in mouse RAW264.7 cells assessed as decrease in LPS-induced IL-6 secretion after 24 hrs by ELISA method
# Assay type: functional, cell-based
# Details: RAW264.7, 24 h
row,IC50 [µM],SMILES
1,21.8,COc1ccc2c(c1)O[C@H](c1ccc(O)cc1O)CC2
2,12.5,COc1ccc([C@@H]2CCc3cc(OC)c(O)cc3O2)cc1O
3,18,COc1cc2c(c(C)c1OC)O[C@H](c1cc(O)c(OC)c(O)c1)CC2

# System: BV-2
# Assay: Anti-inflammatory activity in mouse BV-2 cells assessed as reduction in LPS-induced NO production pretreated for 1 hr followed by LPS-stimulation and measured after 18 hrs by 2,3-diaminonaphthalene reagent based fluorescence analysis
# Assay type: functional, cell-based
# Details: not given
row,IC50 [µM],SMILES
1,40.1,Oc1ccc2c(c1)OC[C@H](c1cc3c(cc1O)OCO3)[C@H]2O
2,46.3,COc1c(O)ccc2c1OC[C@H](c1cc3c(cc1O)OCO3)[C@H]2O
3,28.3,COc1ccc(-c2cc3cc(O)c(O)cc3oc2=O)c(OC)c1OC

# System: RAW264.7
# Assay: Antiinflammatory activity against mouse RAW264.7 cells assessed as reduction of LPS-induced NO production
# Assay type: functional, cell-based
# Details: not given
row,IC50 [µM],SMILES
1,28.4,CC(C)=CCc1cc([C@@H]2CCc3ccc(O)cc3O2)ccc1O
2,29.3,CC(C)=CCc1c([C@@H]2CCc3ccc(O)cc3O2)cc2c(c1O)OC(C)(C)C=C2 [KAZINOL B]

# System: Neutrophil
# Assay: Inhibition of fMLF/CB-induced human Neutrophil activation assessed as reduction in elastase release
# Assay type: functional, cell-based
# Details: not given
row,SMILES,IC50 [µM]
1,CC1(C)CCC[C@@]2(C)Oc3c(ccc4oc(-c5ccc(O)c(O)c5)cc(=O)c34)C[C@@]12C,1.9
2,Cc1cc2oc(-c3ccc(O)c(O)c3)cc(=O)c2c2c1C[C@@]1(C)C(C)(C)CCC[C@@]1(C)O2,3.8
3,c1ccc2c(c1)[I+]c1ccccc1-2 [DIPHENYLENEIODONIUM],1
4,O=C1C[C@@H](c2ccc(O)cc2)Oc2cc(O)cc(O)c21 [NARINGENIN],5.3

# System: Mus musculus
# Assay: Antiinflammatory activity against TPA-induced CD-1 mouse ear edema model assessed as reduction in ear edema at 0.25 mg/kg relative to control
# Assay type: functional
# Design: scale not given: the % may be the effect or the level left
# Details: not given
row,SMILES,Activity [%]
1,O=C1C[C@@H](c2ccc(O)cc2)Oc2cc(O)cc(O)c21 [NARINGENIN],42
2,O=C1C[C@@H](c2ccccc2)Oc2cc(O)cc(O)c21 [PINOCEMBRIN],67.4
3,COc1cc(O)c2c(c1)O[C@H](c1ccc(O)cc1)CC2=O [SAKURANETIN],45.8

# System: BV-2
# Assay: Anti-inflammatory activity in mouse BV-2 cells assessed as reduction in LPS-induced NO production pre-treated with compounds for 2 hrs followed by LPS-stimulation measured for 22 hrs by Griess reagent based analysis
# Assay type: functional, cell-based
# Details: not given
row,IC50 [µM],SMILES
1,5.9,CC(C)=CCc1c(O)ccc(C(=O)/C=C/c2cc3c(cc2O)OCO3)c1O
2,10.9,COc1c(/C=C/C(=O)c2ccccc2)c(O)cc2occc12
3,2.26,CC(C)=CCc1cc(C(=O)/C=C/c2ccc(O)cc2O)c(O)cc1O
4,29.2,COc1c([C@@H](CC(=O)c2ccccc2)OC)c(O)cc2occc12

# System: Macrophage
# Assay: Anti-inflammatory activity in mouse macrophages extracted from abdominal activity assessed as inhibition of LPS-induced nitric oxide production
# Assay type: functional, cell-based
# Details: not given
row,IC50 [µM],SMILES
1,2.46,COc1cc2occ(-c3ccc(O)cc3)c(=O)c2c(OC)c1CC=C(C)C
2,2.06,COc1ccc(-c2coc3cc(OC)c(CC=C(C)C)c(OC)c3c2=O)cc1
3,6.72,COc1cc(-c2coc3cc(O)c(CC=C(C)C)c(O)c3c2=O)c(O)cc1O
4,4.68,COc1ccc(-c2coc3cc(O)c(CC=C(C)C)c(O)c3c2=O)c(O)c1
5,60,COc1c(O)cc2oc(-c3ccc(O)c(O)c3)cc(=O)c2c1O [EUPAFOLIN]
6,5.36,COc1cc(-c2coc3cc(O)c(CC=C(C)C)c(O)c3c2=O)c(OC)cc1O [VIRIDIFLORIN]
